Data published in patent publication US12398110B2, “Second generation inhibitors of mitochondrial permeability transition pore with improved plasma stability” (Oregon Health & Science University, priority 2019, dated 2025).
Where two headings read alike, the source gives them in different places.

Assays:
Type in all cases: biochemical
mtPTP [1] = assay: Ca2+ overload induced mitochondrial swelling in isolated mouse liver mitochondria; details: for mtPTP inhibitory activity (in words): SAR discussion of Table 2
Description: We next sought to evaluate the effects of TR001-13 on mtPTP activity in vitro. This was performed on isolated mitochondria. In isolated mitochondria induction of mtPTP opening leads to mitochondrial swelling due to the oncotic pressure gradient created by matrix proteins >1.5 kDa that cannot diffuse through the open pore. In in vitro experiments, where isolated mitochondria are routinely suspended in sucrose-based isosmotic solutions, the change in mitochondrial size can be measured spectrometrically by detecting the decrease in light scattering at 540 nm.
(§1) Isolation of mitochondria. C57BL6/N mouse liver mitochondria were prepared from 2 to 6 month old male mice by standard differential centrifugation. Mice fed ad libitum were euthanized with CO2 followed cervical dislocation, their livers were existed and placed in a glass beaker containing ice-cold isolation buffer (IB: 0.25 m sucrose, 10 mm Tris-HCl, 0.1 mm EGTA-Tris, pH 7.4) supplemented with fatty acid free bovine serum albumin. Livers were then cut into small pieces with scissors, rinsed with ice-cold IB, and passed through a pre-chilled Potter homogenizer with Teflon pestle. The homogenate (˜30 mL per liver) was transferred to centrifuge tubes, and unbroken cells and nuclei were removed by centrifugation at 700 g for 10 min at 4° C. The supernatant containing mitochondria and other organelles was transferred to new tubes and centrifuged at 6000 g for 10 min at 4° C. The resulting supernatant was discarded and mitochondrial pellet was carefully suspended in ice-cold IB and spun at 9500 g for 5 min at 4° C. The pellet was suspended in IB to give a protein concentration of ˜60-80 mg/mL and stored on ice. Experiments were started immediately and completed within 5 h. Protein concentration was determined by the Biuret method.
Assessment of mitochondrial swelling. Changes in mitochondrial volume of isolated mouse liver mitochondria were followed in a 96-well clear assay plate at a final volume of 0.2 mL and 0.25 mg/mL mitochondrial protein. Absorbance was read for 30 min at 540 nm on a Tecan Infinite F200 plate reader. Activity of test compounds was addressed as follows: First, 0.1 mL of sucrose assay buffer (SAB: 0.250 m sucrose, 10 mm MOPS-Tris, 0.01 mm EGTA-Tris, 1.0 mm phosphoric acid-Tris, 10 mm glutamate and 5 mm malate, pH 7.4) supplemented with twice the CaCl2 concentration required to induce mitochondrial swelling (which was determined for each preparation of mitochondria, typically 50 μm) was dispensed to the assay plate. A set of wells also contained 2.0 mm EGTA (to prevent mitochondrial swelling). The test wells contained a range of concentrations (in 1:2 serial dilutions) of the compounds of interest or 2% DMSO. Experiments were started by the addition of 0.1 mL of mitochondrial suspension (0.5 mg/mL mitochondria in SAB without respiratory substrates) to the assay plates. EC50s±SE were determined with OriginPro software by applying Hill1 function fitting algorithm on average concentration response data of n=3-41 independent preparations.

mtPTP [2] = assay: Ca2+ retention capacity (CRC) of isolated mouse liver mitochondria
Description: CRC determines the Ca^2+ threshold required for mtPTP activation; inhibitors of mtPTP are expected to increase the Ca^2+ threshold required for mtPTP induction. Extramitochondrial Ca^2+ changes are detected using the membrane-impermeant Ca^2+ indicator, Calcium Green-5N.
as §1
Assessment of Ca^2+ retention capacity (CRC). CRC of isolated mouse liver mitochondria was assessed as follows: First, 0.1 mL of SAB were dispensed to a 96-well black assay plate in the presence of 2% DMSO (control wells) or varying concentrations of test compounds, in 1:2 serial dilutions. Then, 0.1 mL of 0.5 mg/mL mitochondria in SAB devoid of respiratory substrates, but supplemented with 1 μm Calcium Green-5N were added to all wells of the assay plate. A train of 10 μm CaCl2 pulses was added at 2 min intervals, and fluorescence intensity (ex/em 485/535 nm) was read on Tecan Infinite F200 plate reader.

[3] = system: inner mitochondrial membrane potential; assay: Rhodamine 123 (Rh123) uptake, mitochondrial membrane potential of isolated mouse liver mitochondria
From the text: We next evaluated the mitochondrial toxicity of the new triazole analogs by testing their ability to interfere with accumulation of the membrane-permeant cationic fluorescent dye rhodamine 123 (Rh123). The mitochondrial uptake of positively charged Rh123 is driven by the inside negative IMM potential, which is built by the respiratory chain or maintained by ATP hydrolysis if certain conditions are met. […] It should be noted, however, that toxicity for these compounds only occurs at ˜10-1000-fold higher concentrations compared to mtPTP inhibition, providing a good therapeutic window.
Assessment of mitochondrial membrane potential. Mitochondrial membrane potential—to evaluate toxicity—of isolated mouse liver mitochondria was assessed based on fluorescence quenching of the cationic fluorescent dye Rh123 upon its accumulation into mitochondrial matrix due to inside negative membrane potential. Compounds that interfere with the build-up or maintenance of IMM potential would shift Rh123 fluorescence to higher values compared to DMSO treated samples. Uncoupler FCCP was used to account for nonspecific fluorescence. First, 0.1 mL of SAB was dispensed to a 96-well black assay plate. A set of wells also contained 0.8 μm FCCP (to prevent Rh123 uptake). The test wells contained a range of concentrations (in 1:2 serial dilutions) of the compounds of interest or 2% DMSO. Then, 0.1 mL of 0.5 mg/mL mitochondria in SAB devoid of respiratory substrates but supplemented with 0.8 μm Rh123 were added to all wells of the assay plate. Fluorescence intensity (ex/em 485/535 nm) was read on a Tecan Infinite F200 plate reader for 7 min and value at 5 min was considered for analysis. EC50s±SE were determined with OriginPro software by applying Hill1 function fitting algorithm on average concentration response data of n=3 independent preparations.

[4] = Mouse Liver Mitochondria (MLM), comparative examples, read-out: Swelling EC50
[5] = Mouse Liver Mitochondria (MLM), comparative examples
[6] = Mouse Liver Mitochondria (MLM), comparative examples, read-out: Rh123 EC50
[7] = isolated mouse liver mitochondria, average ± SEM, n = 3-41, read-out: Mitochondrial Swelling EC50
[8] = compound treated CRC to DMSO treated CRC0 ratio, 1.25 μM, average ± SEM, n = 3-25
[9] = interference with Rh123 uptake to mitochondria, average ± SEM, n = 3, read-out: Rh123 uptake EC50

Row | SMILES | EC50 (mtPTP [1]; [4]) | CRC/CRC0 at 1.25 μM (mtPTP [2]; [5]) | EC50 [3, 6] | other results
1 | Cc1ccc(Cl)cc1NC(=O)c1cn(-c2ccc3[nH]c(=O)[nH]c3c2)nn1 | > 20 µM | 1 |  | 
2 | CC(=O)Nc1cc(-n2cc(C(=O)Nc3cc(Cl)ccc3C)nn2)ccc1F | > 20 µM | 1 |  | 
3 | Cc1ccc(Cl)cc1NC(=O)c1cn(-c2ccc(F)c(NC(=O)C(F)(F)F)c2)nn1 | > 20 µM | 1 |  | 
4 | CC(=O)Oc1cc(-n2cc(C(=O)Nc3cc(Cl)ccc3C)nn2)ccc1F | 0.083 µM | 4.5 | > 40 µM | 
5 | CCOC(=O)Oc1cc(-n2cc(C(=O)Nc3cc(Cl)ccc3C)nn2)ccc1F | 0.581 µM | 1.8 | > 40 µM | 
6 | CCCOc1ccc(Cl)cc1NC(=O)c1cn(-c2ccc(F)c(O)c2)nn1 | 8.7 µM | 1.8 | > 40 µM | 
7 | Cc1ccc(I)cc1NC(=O)c1cn(-c2ccc(F)c(O)c2)nn1 | 0.028 µM | 8.3 | 14.7 µM | 
8 | Cc1ccc(Cl)cc1NC(=O)c1cn(-c2ccc(Br)c(NS(C)(=O)=O)c2)nn1 | > 20 µM | 1 |  | 
9 | Cc1ccc(Cl)cc1NC(=O)c1cn(-c2cccc(C(=O)O)c2)nn1 | > 20 µM | 1 |  | 
10 | Cc1ccc(Cl)cc1NC(=O)c1cn(-c2ccc(F)c(N)c2)nn1 | > 20 µM | 1 |  | 
11 | Cc1ccc(Cl)cc1NC(=O)c1cn(-c2ccc(F)c(NS(=O)(=O)C(F)(F)F)c2)nn1 | > 20 µM | 1 |  | 
12 | C#Cc1ccc(Cl)cc1NC(=O)c1cn(-c2ccc(F)c(O)c2)nn1 | 0.513 µM | 3.7 | > 40 µM | 
13 | C#Cc1ccc(C(C)=O)cc1NC(=O)c1cn(-c2ccc(F)c(O)c2)nn1 | > 20 µM |  |  | 
14 | Cc1ccc(Cl)cc1NC(=O)c1cn(-c2ccc(F)c(OC(=O)N(C)C)c2)nn1 | 0.153 µM | 3.9 |  | 
15 | Cc1ccc(Cl)cc1NC(=O)c1cn(-c2cc(F)cc(OC(=O)N(C)C)c2)nn1 | > 20 µM | 1.5 |  | 
16 | Cc1c(Cl)cccc1NC(=O)c1cn(-c2ccc(F)c(O)c2)nn1 | 0.0051 µM | 5.4 | > 40 µM | 
17 | Cc1ccc(N=[N+]=[N-])cc1NC(=O)c1cn(-c2ccc(F)c(O)c2)nn1 | 0.578 µM | 2.4 | > 40 µM | 
18 | C#Cc1ccc(C)c(NC(=O)c2cn(-c3ccc(F)c(O)c3)nn2)c1 | 7 µM | 1.3 | > 40 µM | 
19 | CC(=O)c1ccc(C)c(NC(=O)c2cn(-c3ccc(F)c(O)c3)nn2)c1 | 5.2 µM | 1.4 | > 40 µM | 
20 | Cc1ccc(Cl)cc1NC(=O)c1cn(-c2cc(O)cc(F)c2)nn1 [TR002, N-(5-chloro-2-methylphenyl)-1-(3-fluoro-5-hydroxyphenyl)-1H-1,2,3-triazole-4-carboxamide] |  |  |  | mtPTP inhibitory activity (in words) (mtPTP [1]): most potent analog; EC50 (mtPTP [1]; [7]): 0.01 ± 0.002 µM; CRC/CRC0 at 1.25 μM (mtPTP [2]; [8]): 12.6 ± 0.6; EC50 [3, 9]: 14.1 ± 1.2 µM
21 | Cc1ccc(Cl)cc1NC(=O)c1cn(-c2cccc(O)c2F)nn1 [TR003, N-(5-chloro-2-methylphenyl)-1-(2-fluoro-3-hydroxyphenyl)-1H-1,2,3-triazole-4-carboxamide] |  |  |  | EC50 (mtPTP [1]; [7]): 0.152 ± 0.036 µM; fold decrease in activity compared to TR001 (mtPTP [1]; mitochondrial swelling, vs TR001): 5 fold; CRC/CRC0 at 1.25 μM (mtPTP [2]; [8]): 7.4 ± 0.5; EC50 [3, 9]: 29.3 ± 3.3 µM
22 | Cc1ccc(Cl)cc1NC(=O)c1cn(-c2cc(O)ccc2F)nn1 [TR004, N-(5-chloro-2-methylphenyl)-1-(2-fluoro-5-hydroxyphenyl)-1H-1,2,3-triazole-4-carboxamide] |  |  |  | mtPTP inhibitory activity (in words) (mtPTP [1]): inactive; EC50 (mtPTP [1]; [7]): > 20 µM; CRC/CRC0 at 1.25 μM (mtPTP [2]; [8]): 1.3 ± 0.03; EC50 [3, 9]: > 40 µM
23 | Cc1ccc(Cl)cc1NC(=O)c1cn(-c2ccc(F)c(O)c2F)nn1 [TR005] |  |  |  | mtPTP inhibitory activity (in words) (mtPTP [1]): decreased activity; EC50 (mtPTP [1]; [7]): 0.782 ± 0.114 µM; CRC/CRC0 at 1.25 μM (mtPTP [2]; [8]): 2.6 ± 0.2; EC50 [3, 9]: > 40 µM
24 | Cc1ccc(Cl)cc1NC(=O)c1cn(-c2ccc(Cl)c(O)c2)nn1 [TR006, N-(5-chloro-2-methylphenyl)-1-(4-chloro-3-hydroxyphenyl)-1H-1,2,3-triazole-4-carboxamide] |  |  |  | mtPTP inhibitory activity (in words) (mtPTP [1]): decreased activity; EC50 (mtPTP [1]; [7]): 0.135 ± 0.015 µM; CRC/CRC0 at 1.25 μM (mtPTP [2]; [8]): 3.9 ± 0.3; EC50 [3, 9]: > 40 µM
25 | Cc1ccc(Cl)cc1NC(=O)c1cn(-c2cccc(O)c2Cl)nn1 [TR007, N-(5-chloro-2-methylphenyl)-1-(2-chloro-3-hydroxyphenyl)-1H-1,2,3-triazole-4-carboxamide] |  |  |  | EC50 (mtPTP [1]; [7]): > 20 µM; CRC/CRC0 at 1.25 μM (mtPTP [2]; [8]): 1.2 ± 0.1; EC50 [3, 9]: > 40 µM
26 | Cc1ccc(Cl)cc1NC(=O)c1cn(-c2cc(O)cc(Cl)c2)nn1 [TR008, N-(5-chloro-2-methylphenyl)-1-(3-chloro-5-hydroxyphenyl)-1H-1,2,3-triazole-4-carboxamide] |  |  |  | EC50 (mtPTP [1]; [7]): 0.028 ± 0.005 µM; fold decrease in activity compared to TR002 (mtPTP [1]; mitochondrial swelling, vs TR002): 2 fold; CRC/CRC0 at 1.25 μM (mtPTP [2]; [8]): 7.3 ± 1.1; EC50 [3, 9]: > 40 µM
